Results taken from US8614250B2 (Industry-Academic Cooperation Foundation, Yonsei University, priority 2011, dated 2013).
Marks after values point to notes of the source that are not given here.

Key:
TNF-α gene expression = assay: RT-PCR analysis of visceral fat tissues; type: in vivo, C57BL/6J mice; settings: mRNA
Protocol: (§1) After adding 1 mL of Trizol agent per 0.1 g of visceral fat tissues, the mixture was homogenized and centrifuged at 12,000×g for 10 min at 4° C. The supernatant was transferred to a new tube and 200 μl of chloroform was added to the tube, followed by vortexing. The same procedure was repeated twice and then the supernatant was transferred to a new tube, followed by addition of isopropanol and the supernatant at 1:1 ratio. The mixture was vigorously shaken 10 times and then incubated for 10 min at room temperature, followed by centrifugation at 12,000×g for 10 min at 4° C. to remove the supernatant. After adding 1 mL of 70% ethanol to the remaining pellet, it was centrifuged at 7,500×g for 5 min at 4° C. After removing the ethanol, the RNA pellet contained in the tube was dried for 5 min at 4° C. and dissolved in nuclease-free water. The RNA sample concentration was measured at a wavelength of 260 nm and 280 nm using a UV/VIS spectrophotometer (Beckman coulter, DU730) and the integrity of RNA sample was verified by agarose gel electrophoresis.
(§2) The RNA sample obtained from the visceral fat tissues was transcribed using oligo dT primer and SuperScript reverse transcriptase (GIBCO BRL, Gaithersburg, Md., USA) to synthesize cDNA. The PCR amplification was performed using the cDNA as templates and primers complementary to cDNA 5′ and 3′ flanking sequence. The amplified products were resolved on agarose gel electrophoresis.

PPARγ2 gene expression = assay: RT-PCR analysis of visceral fat tissues; type: in vivo, C57BL/6J mice; settings: mRNA, versus HFD
Protocol: as §1, §2

IL-6 gene expression = assay: RT-PCR analysis of visceral fat tissues; type: in vivo, C57BL/6J mice; settings: mRNA
Protocol: as §1, §2

aP2 gene expression = assay: RT-PCR analysis of visceral fat tissues; type: in vivo, C57BL/6J mice; settings: mRNA, versus HFD
Protocol: as §1, §2

C/EBPα gene expression = assay: RT-PCR analysis of visceral fat tissues; type: in vivo, C57BL/6J mice; settings: mRNA, versus HFD
Protocol: as §1, §2

[1] = Body weight gain, food intake and visceral fat-pad weights in mice fed high-fat diet supplemented with adipic acid; type: in vivo, C57BL/6J mice; settings: 0.2% adipic acid in high-fat diet, 10 weeks
From the text: (§3) The obesity-inducing control diet used in the test was high-fat diet (HFD: 40% fat calorie, 17 g lard+3% corn oil/100 g diet). […] The normal diet group (Chow) was fed with commercially available rodent chow.
(§4) 5-week-old male C57BL/6J mice (Orient, Korea) were accustomed to the laboratory environment for 1 week while feeding solid feed. Then, they were randomly divided into normal diet, high-fat diet and test groups and bred for a total of 10 weeks. The diet was given between 10 and 11 a.m. every day together with water. Food intake was measured every day and body weight was measured once a week. In order to avoid transient body weight increase after feed intake, body weight was measured 2 hours after removing the feed. After fasting the test animal for at least 12 hours and anesthetizing with diethyl ether, blood, liver and visceral fat (epididymal fat, perirenal fat, mesenteric fat and retroperitoneal fat) were taken and weighed after washing with 0.1 M PBS (pH 7.4). Blood taken from the abdominal aorta was centrifuged at 1000×g for 15 minutes for the separation of plasma.

[2] = rat; ketosis caused by long-chain and short-chain monocarboxylic acids; cited from earlier work
[3] = Liver weight and lipid level in liver tissues of mice fed test diets; type: in vivo, C57BL/6J mice; settings: 10 weeks
From the text: as §3, §4
Lipids were extracted from the liver tissue according to Folch et al.'s method Folch J et al., J Biol Chem. 226: 497-509 (1957)). After adding 1 mL of distilled water to 0.25 g of liver tissue, the liver tissue was homogenized using a Polytron homogenizer (IKA-Werke GmbH & Co., Ultra-Turrax, Staufen, Germany). After adding 5 mL of chloroform:methanol solution (2:1, v/v) to the homogenate and mixing well, the mixture was centrifuged at 1000×g for 10 minutes. After adding 2 mL of chloroform:methanol solution (2:1, v/v) again to the supernatant, the same procedure was repeated to completely separate the lipid components of the liver. After adding 3 mL of chloroform:methanol:0.05% CaCl2 (3:48:47, v/v/v) solution to the remaining pellets and mixing well for 1 minute, followed by centrifugation at 1000×g for 10 minutes, the resulting pellets were completely dried with nitrogen gas. The dried lipids were dissolved in 1 mL of methanol and then analyzed.
The same kit (Bio Clinical System) as that used for the plasma analysis was used to measure the triglyceride and cholesterol levels of the liver tissue.

[4] = Biochemical analysis of blood (plasma lipids, glucose, ALT, AST) in mice fed test diets; type: in vivo, C57BL/6J mice; settings: 10 weeks
From the text: as §3, §4
After 10 weeks of breeding, total cholesterol, triglyceride and glucose levels in the plasma and lipid levels in the liver tissue were measured as follows. Total cholesterol, triglyceride, free fatty acid and glucose levels in the plasma were measured twice for each using a commercially available kit (Bio Clinical System). The activity of ALT (alanine aminotransferase) and AST (aspartate aminotransferase) used as liver function indicator were measured twice for each using a commercially available kit (Bio Clinical System, Korea).

[5] = patients treated for 8 weeks; cited from earlier work

Q: For `O=C(O)CCCCC(=O)O` [adipic acid], which “HFD-induced elevation in the expression of TNF-α” value (TNF-α gene expression) is on record?
A: significantly reversed

Q: And the “expression of PPARγ2 gene” value (PPARγ2 gene expression)?
A: significantly decreased

Q: And the “HFD-induced elevation in the expression of IL-6” value (IL-6 gene expression)?
A: significantly reversed

Q: And the “expression of aP2 gene” value (aP2 gene expression)?
A: significantly decreased

Q: What about the “expression of C/EBPα gene” value (C/EBPα gene expression) of the same compound?
A: significantly decreased

Q: What about the daily food intake [1] of the same compound?
A: no significant change

Q: And the “decrease of body weight gain as compared to HFD” value [1]?
A: 49%

Q: And the “epididymal fat-pad weight as compared to HFD” value [1]?
A: significantly reduced

Q: And the “mesenteric fat-pad weight as compared to HFD” value [1]?
A: significantly reduced

Q: And the “perirenal fat-pad weight as compared to HFD” value [1]?
A: significantly reduced

Q: What about the “reduction of total visceral fat weight as compared to HFD” value [1] of the same compound?
A: 21%

Q: And the “retroperitoneal fat-pad weight as compared to HFD” value [1]?
A: significantly reduced

Q: And the effect on ketosis [2]?
A: effective for improving ketosis

Q: And the “decrease of cholesterol level in liver tissue as compared to HFD” value [3]?
A: 44%

Q: And the “decrease of free fatty acid level in liver tissue as compared to HFD” value [3]?
A: 37%

Q: And the “decrease of triglyceride level in liver tissue as compared to HFD” value [3]?
A: 26%

Q: What about the “reduction of liver absolute weight as compared to HFD” value [3] of the same compound?
A: 12%

Q: What about the “decrease of plasma ALT activity as compared to HFD” value [4] of the same compound?
A: 40%

Q: And the “decrease of plasma AST activity as compared to HFD” value [4]?
A: 27%

Q: And the “lower plasma free fatty acid level as compared to HFD” value [4]?
A: 32%

Q: And the “lower plasma total cholesterol level as compared to HFD” value [4]?
A: 24%

Q: And the “lower plasma triglyceride level as compared to HFD” value [4]?
A: 26%

Q: What about the “reduction of fasting blood sugar level as compared to HFD” value [4] of the same compound?
A: 25%

Q: What about the ALT ([4]; plasma, mean ± SEM) of the same compound?
A: 7.9 ± 0.78^c IU/L

Q: What about the AST ([4]; plasma, mean ± SEM) of the same compound?
A: 8.9 ± 0.28^b IU/L

Q: And the Free fatty acid ([4]; plasma, mean ± SEM)?
A: 890 ± 56^c uEq/L

Q: What about the Total cholesterol ([4]; plasma, mean ± SEM) of the same compound?
A: 2.66 ± 0.41^b mmol/L

Q: And the Triglyceride ([4]; plasma, mean ± SEM)?
A: 0.89 ± 0.05^b mmol/L

Q: And the Glucose ([4]; plasma, fasted, mean ± SEM)?
A: 6.6 ± 0.41^b mmol/L

Q: With `CCOC(=O)C1=C(COCCN)NC(C)=C(C(=O)OC)C1c1ccccc1Cl.O=C(O)CCCCC(=O)O` (stereo not drawn) [amlodipine adipate] as the compound, how does the symptoms of hypertension [5] read?
A: alleviated symptoms of hypertension
